“And” between values parts separate entries of the source, which are not always exact repeats. Equal entries are not always repeated. Where two headings read alike, the source gives them in different places.
Columns and labels:
OCI-AML3 = assay: MTS proliferation assay, OCI-AML3; format: cell-based; conditions: Homo sapiens, OCI-AML-3; OCI-AML3, 96-hour treatment; read-out: IC50 (MTS proliferation)
Description: A total of 10,000–20,000 cells from different AML lines or 50,000–75,000 cells of primary AML blasts were treated in a 96-well plate for 72 hours or 96 hours at 37°C, 5% CO2. CellTiter 96 Aqueous MTS reagent (Promega) was added to cells followed by a 3-hour incubation at 37°C, 5% CO2. The absorbance was measured at 490 nm using DTX 880 plate reader, and the IC50 was calculated using GraphPad Prism.

[1] = biological target: T1, human DHODH (hDHODH, amino acid residues 31-395) (Homo sapiens, UniProt Q02127); assay: Cell-free human DHODH enzyme inhibition assay; format: biochemical
T1 construct: purchased Reaction Biology (assay run there as a service)
T1 sequence (Q02127 31-395): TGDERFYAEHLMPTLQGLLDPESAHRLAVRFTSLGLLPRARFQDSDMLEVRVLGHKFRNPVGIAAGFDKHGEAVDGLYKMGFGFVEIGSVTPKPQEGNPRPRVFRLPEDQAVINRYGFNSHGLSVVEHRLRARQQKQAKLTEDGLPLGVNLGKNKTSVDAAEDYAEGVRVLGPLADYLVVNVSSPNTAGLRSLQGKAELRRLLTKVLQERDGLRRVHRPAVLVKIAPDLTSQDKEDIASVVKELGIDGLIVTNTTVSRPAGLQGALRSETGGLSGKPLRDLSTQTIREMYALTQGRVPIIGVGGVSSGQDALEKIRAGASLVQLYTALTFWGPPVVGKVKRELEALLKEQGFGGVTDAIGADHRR
Description: Details are described in the Supplemental Methods. […]
Enzyme inhibition of human DHODH […]
performed at Reaction Biology (Malvern, PA, USA). Briefly, a two-step fluorescence-based assay was used to test compounds in duplicates using a 10-dose IC50 mode with 3-fold serial dilution starting at 1 µM or 10 µM. The enzymatic step for hDHODH (used at […]
to orotate and followed by resazurin (used at 60 or 80 µM per reaction) catalyzed to […]
resorufin. […]

[2] = system: MOLM-13 disseminated CDX AML model; assay: MOLM-13 CDX efficacy study correlated with PK/PD (survival); format: in vivo
Description: Male 8- to 12-week-old NCG mice were engrafted with 1 × 10^5 cells via tail vein i.v. injection. Four days after engraftment (day 1 of treatment), mice (n = 9–10/arm) were randomized to receive p.o. qd vehicle (40% HPβCD) or p.o. qd HOSU-53 at 4, 10, and 20 mg/kg or 30 mg/kg biwk till moribundity or end of study, day 73. An additional study was done for PK/PD correlation with the survival study where 9 mice per group were randomized to receive p.o. qd vehicle (40% HPβCD) or p.o. qd HOSU-53 at 4, 10, and 20 mg/kg or 30 mg/kg biwk till day 14. Mice were bled for plasma collection to analyze HOSU-53 and DHO concentrations 1 day after the first dose and on day 14 for cumulative plasma concentration analysis. Figure 3B and Figure 4, A and B, share the same vehicle group.

plasma DHO = assay: DHO plasma accumulation in MOLM-13 tumor-bearing mice; format: in vivo, NCG mice; design: unit not given here; conditions: 10 mpk PO, female mice, per mouse, 10 mg/kg
[3] = system: MOLM-13 disseminated CDX AML model; assay: MOLM-13 CDX synergy with anti-CD38 immunotherapy; format: in vivo, NCG mice; conditions: HOSU53 10 mpk qd; event 1 = death; 10 mg/kg
Description: Male 8- to 12-week-old male NCG mice were engrafted with 1 × 10^5 cells via tail vein i.v. injection. […] Figure 7, B and C, and Supplemental Figure 7, A and B, share 2 combined vehicle groups (n = 16 total).
Supplemental Figure S.7. […] Using the
daratumumab (Dara) (A) or biwk 2.5 mg/kg i.p isatuximab, Isa (B) anti-CD38 antibodies or a
Treatment was stopped at day
80. Adjusted FDR p-value *<0.05, nonsignificant (ns) ≥0.05.
Both Supplementary Figure S.7, A and B share the same vehicle and 4 mg/kg
(§1) (1 picture or pasted object on this page, not shown here)

PPARγ = biological target: T2, PPARγ (Homo sapiens, UniProt P37231); assay: CEREP Safety Screen 87; format: binding; conditions: 1 µM
T2 construct: purchased CEREP (Safety Screen 87 panel, as the earlier reading names the assay)
T2 sequence (P37231 whole entry): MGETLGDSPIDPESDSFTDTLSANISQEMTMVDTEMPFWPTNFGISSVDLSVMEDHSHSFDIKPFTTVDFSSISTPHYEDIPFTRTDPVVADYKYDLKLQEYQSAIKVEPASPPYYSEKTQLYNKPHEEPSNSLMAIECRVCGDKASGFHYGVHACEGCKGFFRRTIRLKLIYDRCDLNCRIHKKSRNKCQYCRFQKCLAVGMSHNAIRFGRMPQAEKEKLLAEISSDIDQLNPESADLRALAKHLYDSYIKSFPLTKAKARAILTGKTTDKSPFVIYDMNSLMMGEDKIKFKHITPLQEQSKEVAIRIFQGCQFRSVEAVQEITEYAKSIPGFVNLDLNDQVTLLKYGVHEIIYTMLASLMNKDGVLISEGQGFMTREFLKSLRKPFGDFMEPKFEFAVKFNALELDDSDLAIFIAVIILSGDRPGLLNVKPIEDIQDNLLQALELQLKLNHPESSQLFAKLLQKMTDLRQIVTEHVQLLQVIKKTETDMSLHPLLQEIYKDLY
Description: Supplement jciinsight-9-173646-s083.xlsx, sheet "Supplemental Table S.2." | column: HOSU-53

[4] = system: panel of approximately 450 human kinases; assay: KINOMEscan profiling; format: binding; conditions: 10 μM
Description: Supplemental Figure S.1. HOSU-53 KINOMEscan™ Profiling. Eurofins DiscoverX KINOMEscan®
Profiling was conducted using 10 μM HOSU-53 to investigate the presence of any off-target kinase
as §1

CCCCOc1cccc(-c2ccc(-c3cc(C(=O)O)c4cc(F)ccc4n3)cc2)c1 [HOSU-53]
IC50 (OCI-AML3): 20 nM
IC50 ([1]; cell-free multi-species assay, n=1, read-out: DHODH IC50 Human): 0.69 nM
IC50 ([1]; cell-free, HOSU-53, BAY, BRQ averaged from 6, 10, 4 replicates, read-out: hDHODH IC50): 0.95 nM
median survival ([2]; 10 mg/kg daily p.o.): 55 days
tolerability ([2]; 20 mg/kg daily p.o.): intolerable in approximately half the mice
median survival ([2]; 30 mg/kg twice weekly p.o.): 48 days
tolerability ([2]; 30 mg/kg twice weekly p.o.): well tolerated
Survival, day of study at event (per animal) ([2]; 4 mpk poqd): 44 days and 46 days and 43 days and 45 days and 36 days
Survival, day of study at event (per animal) ([2]; 10mpk poqd): 55 days and 52 days and 47 days and 60 days and 59 days and 49 days and 63 days and 58 days
Survival, day of study at event (per animal) ([2]; 20mpk poqd, flag 0 = censored): ≥ 73 days and 69 days and 46 days and 41 days and 40 days and 71 days and 11 days and 31 days
Survival, day of study at event (per animal) ([2]; 30mpk biwk): 50 days and 43 days and 42 days and 48 days and 46 days and 52 days and 44 days and 49 days
DHO AUC (Figure 3C y value) (plasma DHO; Day 1): 242.955 and 321.59 and 315.332
DHO AUC (Figure 3C y value) (plasma DHO; Day 14): 411.662 and 445.373 and 347.096
Day of Study (survival, per animal) [3]: 57 days and 64 days and 43 days and 63 days and 58 days and 62 days and 65 days
CEREP Safety Screen 87: PPARγ binding (PPARγ): PPARγ (66% binding at 1 µM)
alternative-target activity against kinase panel [4]: lack of alternative-target activity

— publication PMC11141866, “Pyrimidine depletion enhances targeted and immune therapy combinations in acute myeloid leukemia” (JCI Insight, 2024)
